Values of other authors, collected in patent US11376295B2, “Method for preparing Rhus verniciflua stokes extract containing increased fisetin content, and metastasis-inhibiting anticancer agent composition containing same” (MEDIENCE CO.,LTD, priority 2018, dated 2022).

Settings: among flavonoids of the Rhus verniciflua Stokes extract; result of research, background

Compound | anticancer activity
O=c1c(O)c(-c2ccc(O)c(O)c2)oc2cc(O)ccc12 [fisetin] | highest anticancer activity
O=C1c2ccc(O)cc2O[C@H](c2ccc(O)c(O)c2)[C@H]1O [fustin] | low anticancer activity
